This passage reports inhibition results from ChEMBL document CHEMBL5120798, “Design and synthesis of an N-benzyl 5-(4-sulfamoylbenzylidene-2-thioxothiazolidin-4-one scaffold as a novel NLRP3 inflammasome inhibitor” (Bioorg Med Chem Lett, 2022).

As usually defined, the inhibition is the change of the read-out against control, counted positive when it falls.

Format in all cases: cell-based
Assay [1] addresses NACHT, LRR and PYD domains-containing protein 3 (Mus musculus) (UniProt Q8R4B8). In words: Inhibition of NLRP3 inflammasome activation in LPS-primed mouse BMDM cells assessed as reduction in LPS/ATP induced cleaved IL-1beta release in supernatant at 2 uM preincubated for 30 mins followed by LPS addition for 3 hrs prior to ATP addition for 30 mins by Western blot analysis. Conditions: time 4.0 hrs. A general note: A western blot detects proteins with antibodies after separation by electrophoresis.

Assay [2] shares this target. In words: Inhibition of NLRP3 inflammasome activation in LPS-primed mouse BMDM cells assessed as reduction in LPS/ATP induced cleaved caspase 1 level in supernatant preincubated for 30 mins followed by LPS addition for 3 hrs prior to ATP addition for 30 mins by Western blot analysis. Conditions: dose 4-10 µM, time 4.0 hrs, DDE = dose-dependent effect.
For assay [3] the target is unchanged. As to the kind of experiment: Inhibition of NLRP3 inflammasome assembly in LPS/nigericin stimulated mouse BMDM cells assessed as reduction in NLRP3 specks. Conditions: concentration not given here.
Assay [4] shares this target. In words: Inhibition of NLRP3 inflammasome activation in LPS-primed mouse BMDM cells assessed as reduction in LPS/ATP induced cleaved IL-1beta release in supernatant preincubated for 30 mins followed by LPS addition for 3 hrs prior to ATP addition for 30 mins by Western blot analysis. Conditions: dose 4-10 µM, time 4.0 hrs, DDE = dose-dependent effect.
The target of assay [5] is NACHT, LRR and PYD domains-containing protein 3 (Homo sapiens) (UniProt Q96P20). In words: Inhibition of NLRP3 inflammasome assembly in human THP-1 cells assessed as reduction in ASC oligomers formation.

Each structure is given as a SMILES string. Active and inactive are the calls of the source. The calls are words filed in the database; no cut-off is given here.

NACHT, LRR and PYD domains-containing protein 3 (Mus musculus), sequence (Q8R4B8 whole entry, the tested form may be a part): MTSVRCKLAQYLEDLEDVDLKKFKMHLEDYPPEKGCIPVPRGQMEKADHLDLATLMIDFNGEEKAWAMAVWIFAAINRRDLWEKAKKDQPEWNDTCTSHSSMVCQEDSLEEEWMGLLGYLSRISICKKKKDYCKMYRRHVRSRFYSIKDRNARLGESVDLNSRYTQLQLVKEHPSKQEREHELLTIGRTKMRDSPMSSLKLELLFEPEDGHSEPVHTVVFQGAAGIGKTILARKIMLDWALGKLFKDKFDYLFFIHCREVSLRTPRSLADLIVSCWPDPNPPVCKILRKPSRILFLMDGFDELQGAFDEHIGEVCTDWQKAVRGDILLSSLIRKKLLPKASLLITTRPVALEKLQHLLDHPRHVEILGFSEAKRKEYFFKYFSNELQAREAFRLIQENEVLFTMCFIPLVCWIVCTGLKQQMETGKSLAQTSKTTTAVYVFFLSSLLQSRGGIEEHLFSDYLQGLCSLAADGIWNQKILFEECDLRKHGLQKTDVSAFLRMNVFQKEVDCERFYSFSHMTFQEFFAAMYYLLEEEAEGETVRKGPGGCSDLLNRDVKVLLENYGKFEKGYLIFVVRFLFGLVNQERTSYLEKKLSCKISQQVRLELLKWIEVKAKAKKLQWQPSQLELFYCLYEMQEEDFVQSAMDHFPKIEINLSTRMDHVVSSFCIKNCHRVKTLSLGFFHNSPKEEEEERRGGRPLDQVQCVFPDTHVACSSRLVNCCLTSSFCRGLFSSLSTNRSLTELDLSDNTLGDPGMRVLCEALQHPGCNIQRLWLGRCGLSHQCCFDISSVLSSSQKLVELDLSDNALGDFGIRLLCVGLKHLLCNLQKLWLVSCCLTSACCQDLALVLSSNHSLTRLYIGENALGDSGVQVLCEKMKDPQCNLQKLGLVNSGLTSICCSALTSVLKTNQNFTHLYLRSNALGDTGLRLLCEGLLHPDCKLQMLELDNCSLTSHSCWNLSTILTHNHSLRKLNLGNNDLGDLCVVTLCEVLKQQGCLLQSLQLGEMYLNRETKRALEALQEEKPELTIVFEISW
NACHT, LRR and PYD domains-containing protein 3 (Homo sapiens), sequence (Q96P20 whole entry, the tested form may be a part): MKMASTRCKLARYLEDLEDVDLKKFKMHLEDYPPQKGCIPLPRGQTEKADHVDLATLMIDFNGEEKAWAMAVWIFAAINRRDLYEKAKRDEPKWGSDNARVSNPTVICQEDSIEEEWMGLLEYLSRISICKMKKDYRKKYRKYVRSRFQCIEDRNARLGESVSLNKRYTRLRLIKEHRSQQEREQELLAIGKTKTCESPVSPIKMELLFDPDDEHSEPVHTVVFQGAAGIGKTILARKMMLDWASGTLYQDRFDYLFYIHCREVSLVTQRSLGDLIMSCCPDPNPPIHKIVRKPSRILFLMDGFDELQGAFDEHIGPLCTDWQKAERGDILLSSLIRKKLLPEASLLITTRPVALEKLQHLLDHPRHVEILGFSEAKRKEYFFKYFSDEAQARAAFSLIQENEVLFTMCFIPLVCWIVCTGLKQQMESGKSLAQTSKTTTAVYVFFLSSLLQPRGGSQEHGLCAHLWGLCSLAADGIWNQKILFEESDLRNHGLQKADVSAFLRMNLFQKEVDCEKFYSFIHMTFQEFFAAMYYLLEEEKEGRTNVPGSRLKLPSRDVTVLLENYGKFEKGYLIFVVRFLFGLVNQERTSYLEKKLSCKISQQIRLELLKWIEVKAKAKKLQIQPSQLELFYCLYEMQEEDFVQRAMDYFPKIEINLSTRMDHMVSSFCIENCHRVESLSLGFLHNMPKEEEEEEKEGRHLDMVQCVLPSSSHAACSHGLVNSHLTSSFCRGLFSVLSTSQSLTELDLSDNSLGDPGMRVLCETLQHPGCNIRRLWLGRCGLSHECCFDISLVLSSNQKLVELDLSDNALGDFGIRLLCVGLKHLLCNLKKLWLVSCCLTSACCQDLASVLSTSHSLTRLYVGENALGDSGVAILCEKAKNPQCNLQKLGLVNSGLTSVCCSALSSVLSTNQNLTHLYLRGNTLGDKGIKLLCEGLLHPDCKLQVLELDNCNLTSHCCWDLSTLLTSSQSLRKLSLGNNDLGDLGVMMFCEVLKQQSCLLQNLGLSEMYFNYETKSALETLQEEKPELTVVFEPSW

With `COc1ccccc1CN1C(=O)/C(=C/c2ccc(S(N)(=O)=O)cc2)SC1=S`, the inhibition entry in assay [1] was “Active”.
As to `COc1ccc(Cl)c(CN2C(=O)/C(=C/c3ccc(S(N)(=O)=O)cc3)SC2=S)c1`, the inhibition result in assay [2] is “Dde”; in assay [3], 60%; in assay [4] it was “Dde”. Also, in assay [5], the inhibition result is “Active”.
In the case of `CCCCOc1ccc(Cl)cc1CN1C(=O)/C(=C/c2ccc(S(N)(=O)=O)cc2)SC1=S`, the inhibition entry in assay [1] was “Active”.
Same read-out and setting: the result for `NS(=O)(=O)c1ccc(/C=C2\SC(=S)N(Cc3cccc(Cl)c3)C2=O)cc1` reads “Active”.
For the compound `COc1ccc(Cl)cc1CN1C(=O)/C(=C/c2ccc(S(N)(=O)=O)cc2)SC1=S`, the inhibition entry is “Dde” in assay [2], 60% in assay [3] and “Dde” in assay [4]. Further, the inhibition entry in assay [5] is “Active”.
